Data as given in patent publication US12590099B2, “Inhibitors of histone deacetylase useful for the treatment or prevention of HIV infection” (Merck Sharp & Dohme LLC, priority 2018, dated 2026).
Like-named read-outs stand apart in the source and are kept apart here.

Key:
Recombinant human HDAC8 = biological target: T1, Recombinant human HDAC8 (Homo sapiens, UniProt Q9BY41); experiment: Human HDAC enzyme inhibitor Fluor-de-Lys assay, HDAC8; assay type: biochemical
T1 construct: purchased Enzo Life Sciences BML-SE145-0100
T1 sequence (Q9BY41 1-377): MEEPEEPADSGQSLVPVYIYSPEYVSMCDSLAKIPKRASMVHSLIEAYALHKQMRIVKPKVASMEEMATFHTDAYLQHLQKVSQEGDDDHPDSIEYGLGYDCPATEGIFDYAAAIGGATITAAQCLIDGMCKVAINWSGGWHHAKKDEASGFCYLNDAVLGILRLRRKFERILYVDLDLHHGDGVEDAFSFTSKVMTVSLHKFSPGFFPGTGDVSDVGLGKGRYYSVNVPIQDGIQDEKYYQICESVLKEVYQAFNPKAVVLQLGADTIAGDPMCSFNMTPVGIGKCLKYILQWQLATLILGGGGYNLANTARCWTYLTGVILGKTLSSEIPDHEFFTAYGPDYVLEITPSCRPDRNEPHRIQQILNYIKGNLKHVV
Procedure: (§1) Human HDAC Enzyme Inhibitor Fluor-De-Lys Assay
(§2) Recombinant human HDAC8 (BML-SE145-0100) and HDAC10 (BML-SE559-0050) enzymes, HDAC substrates BML-KI104 and BML-KI178, and HDAC developer solutions BML-KI105 and BML-KI176 were purchased from Enzo Life Sciences. […] HDAC inhibitor suberoylanilide hydroxamic acid (SAHA) was obtained from Indofine and trichostatin A (TSA) was obtained from Sigma-Aldrich.
(§3) The histone deacetylase activities of HDAC1, HDAC2, HDAC3, HDAC6, and HDAC8 were measured in modified FLUOR DE LYS assays in 384-well format. In this assay, HDAC enzymes are initially incubated with an ε-acetyl (or -trifluoroacetyl)-L-lysine-containing substrate with a C-terminal amide having aminomethylcoumarin as the amine component. HDACs cleave the ε-acetyl group, rendering the resulting product susceptible to AMC cleavage by trypsin. The released AMC is then detected by its fluorescence.
(§4) The HDAC3/SMRT assay employed buffer B, consisting of 20 mM HEPES, pH 8.0, 1 mM MgCl2, 50 mM NaCl, 2.7 mM KCl, 0.05% BSA, 0.005% Tween 20, and 10 μM IP4. […] The HDAC8 assay employed buffer D, consisting of 20 mM HEPES, pH 8.0, 1 mM MgCl2, 100 mM NaCl, 20 mM KCl, 0.10% n-octyl-β-D-glucoside (Anatrace) and 0.05% BSA. All steps were performed at room temperature (23° C.). The assay was performed by pre-incubating serial dilutions of test compounds with the target HDAC prior to initiation with substrate. Each compound was titrated in a 10-point dose response, using a 1:3 fold dilution scheme, with 0.15 ul of solution added by ECH0555 to the plate, followed by the addition of 20 μl of the appropriate HDAC isoform diluted in appropriate assay buffer. […] Final conditions used for each assay were: 1. HDAC 1, 0.3 nM total enzyme, 20 μM substrate BML-KI104; 2. […] HDAC 3/SMRT, 0.3 nM total enzyme, 20 μM substrate BML-KI104; 4. […] The reactions were stopped and developed by addition of 30 ul of HDAC developer solution containing a saturating level of HDAC inhibitor as follows: 1.

KARN cells (Jurkat 2C4) = experiment: cells; assay type: cell-based
Procedure: KARN cells (Jurkat 2C4) were licensed from the laboratory of Dr. John Karn, Case Western Reserve University, School of Medicine. […] An atmosphere of 5% CO2 and 90% humidity was used for all culture work.
Day 1: After the 3-4 day growth period, the cells were transferred from the T175 flask to a 50 ml conical tube and gently pelleted at 1000 rpm for 5 minutes. […] These flasks were returned to the incubator.
Day 2: Cell Preparation: The next day, the cells were transferred from each T175 flask to an individual 50 ml conical tube and gently pelleted at 1000 rpm for 5 minutes. The cells were gently resuspended in assay media (30 ml) and pelleted again. […] The cells were counted using the ViCell (Beckman Coulter) and diluted as necessary. […] The plates were covered and returned to the incubator prior to compound addition.
The reference compounds, DMSO and SAHA were then added to the compound plate. […] The final high concentration for SAHA and the test compounds in the assays was 40 μM. The final DMSO concentration in all wells was 0.4%. The minimal induction reference compound used was DMSO and the maximal induction reference compound used was SAHA (2 μM final concentration in the assay).
Day 3: The luciferase detection reagent was prepared by transferring the contents of one bottle of Steady-Glo buffer to one bottle of Steady-Glo aubstrate (Steady-Glo Luciferase Assay System, Promega, catalog number E2520), followed by gently mixing until the substrate was thoroughly dissolved and the solution was equilibrated to room temperature. […] The Steady-Glo Reagent was added to the plates (30 μl/well), which were then covered with a black lid and incubated for 10 minutes at room temperature. The plates were then read for luminescence on an Envision (Perkin Elmer) using the ultrasensitive mode (US LUM), […] and 384-well aperture. Luminescence counts in the DMSO reference wells were considered as 0% induction, while those in the 2 μM SAHA reference wells were considered as 100% induction. Dose response curves were plotted as test compound concentration (X-axis) vs. percent activation (Y-axis) using a 4-parameter fit based on the Levenberg-Marquardt algorithm.

HDAC6 = biological target: T2, HDAC6 (Homo sapiens, UniProt Q9UBN7); experiment: Human HDAC enzyme inhibitor Fluor-de-Lys assay, HDAC6; assay type: biochemical
T2 sequence (Q9UBN7 1-1215): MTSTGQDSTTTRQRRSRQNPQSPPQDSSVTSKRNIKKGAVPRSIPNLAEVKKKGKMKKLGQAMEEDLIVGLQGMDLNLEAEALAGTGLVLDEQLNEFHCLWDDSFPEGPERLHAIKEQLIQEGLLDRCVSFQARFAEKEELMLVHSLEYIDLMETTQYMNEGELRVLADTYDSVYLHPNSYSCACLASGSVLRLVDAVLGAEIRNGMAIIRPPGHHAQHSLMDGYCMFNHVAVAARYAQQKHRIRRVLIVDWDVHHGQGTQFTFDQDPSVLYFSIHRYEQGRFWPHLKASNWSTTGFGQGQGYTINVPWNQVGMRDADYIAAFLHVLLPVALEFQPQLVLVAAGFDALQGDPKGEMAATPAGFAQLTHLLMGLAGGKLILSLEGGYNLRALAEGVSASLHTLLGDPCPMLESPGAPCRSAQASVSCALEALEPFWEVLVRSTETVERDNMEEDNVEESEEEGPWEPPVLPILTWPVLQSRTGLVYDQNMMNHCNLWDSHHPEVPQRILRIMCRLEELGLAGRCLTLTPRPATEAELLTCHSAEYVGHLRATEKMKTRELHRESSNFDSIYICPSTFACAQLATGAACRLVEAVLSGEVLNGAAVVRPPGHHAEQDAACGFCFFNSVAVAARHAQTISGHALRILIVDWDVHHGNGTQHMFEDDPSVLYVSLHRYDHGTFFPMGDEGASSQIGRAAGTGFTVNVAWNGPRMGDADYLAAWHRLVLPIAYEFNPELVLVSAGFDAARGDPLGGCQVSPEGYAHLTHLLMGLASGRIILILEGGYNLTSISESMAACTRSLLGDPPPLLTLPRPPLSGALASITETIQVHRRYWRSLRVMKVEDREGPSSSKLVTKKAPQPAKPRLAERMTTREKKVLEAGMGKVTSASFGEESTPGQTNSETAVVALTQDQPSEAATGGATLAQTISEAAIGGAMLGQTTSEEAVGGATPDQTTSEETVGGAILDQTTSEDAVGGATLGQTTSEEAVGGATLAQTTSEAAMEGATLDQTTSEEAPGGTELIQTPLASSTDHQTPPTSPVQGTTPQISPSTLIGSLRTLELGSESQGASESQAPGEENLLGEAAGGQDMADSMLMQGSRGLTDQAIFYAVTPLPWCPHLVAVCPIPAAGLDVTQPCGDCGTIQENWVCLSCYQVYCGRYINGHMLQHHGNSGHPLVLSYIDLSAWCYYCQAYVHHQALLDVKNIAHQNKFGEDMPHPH
Procedure: as §1, §2, §3, §4

[1] = Homo sapiens, Jurkat, read-out: Karn EC50 (nM) 0.1% NHS, 0.1% normal human serum
[2] = Homo sapiens, Jurkat, read-out: Karn EC50 (nM) 5% NHS, 5% normal human serum
[3] = recombinant human HDAC8, Fluor-de-Lys assay
[4] = Homo sapiens, Jurkat, read-out: Karn EC50 (nM) 0.1% NHS, 0.1% normal human serum, luciferase induction, 100% = 2 μM SAHA
[5] = Homo sapiens, Jurkat, read-out: Karn EC50 (nM) 5% NHS, 5% normal human serum, luciferase induction, 100% = 2 μM SAHA

Structure (SMILES)	IC50 (Recombinant human HDAC8) [nM]	EC50 (KARN cells (Jurkat 2C4); [1]) [nM]	EC50 (KARN cells (Jurkat 2C4); [2]) [nM]	IC50 (HDAC6) [nM]	IC50 (Recombinant human HDAC8; [3]) [nM]	EC50 (KARN cells (Jurkat 2C4); [4]) [nM]	EC50 (KARN cells (Jurkat 2C4); [5]) [nM]	IC50 (HDAC6; HDAC6, Fluor-de-Lys assay) [nM]	also measured
CCC(=O)CCCCC[C@H](NC(=O)[C@@H]1CC12CCOCC2)c1ncc(-c2cc3ccccc3nc2OC)[nH]1 [Compound 64]	6350	647	5040	3580	–	–	–	–	–
CCC(=O)CCCCC[C@H](NC(=O)C1CC2(CCN(CC)CC2)C1)c1ncc(-c2cc3ccccc3nc2OC)[nH]1 [Compound 278]	–	–	–	–	980	166	1000	479	–
CCC(=O)CCCCC[C@H](NC(=O)C1CC12CN(C)C2)c1ncc(-c2cc3ccccc3nc2OC)[nH]1 (some centres unmarked) [Compound 312]	–	–	–	–	2020	155	633	299	–
CCC(=O)CCCCC[C@H](NC(=O)[C@H]1CC12CCN(CC)CC2)c1ncc(-c2cc3ccccc3nc2OC)o1 [Compound 124]	16000	111	151	137	–	–	–	–	–
CCC(=O)CCCCC[C@H](NC(=O)[C@H]1CC12CCN(CC)CC2)c1ncc(-c2cc3cccnc3cc2OC)[nH]1 [Compound 181]	5250	52	63	144	–	–	–	–	–
CCC(=O)CCCCC[C@H](NC(=O)[C@@H]1CC12CCN(C)CC2)c1ncc(-c2ccc3ncccc3c2)[nH]1 [Compound 281]	–	–	–	–	–	2140	2170	–	–
CCN1CCC2(CC1)C[C@@H]2C(=O)N[C@@H](CCCCCC(=O)CC1CC1)c1ncc(-c2cccnc2OC)[nH]1 [Compound 202]	8780	210	501	34900	–	–	–	–	–
CCC(=O)CCCCC[C@H](NC(=O)[C@H]1C[C@]12CCN(C)C2)c1ncc(-c2cc3ccccc3nc2OC)[nH]1 [Compound 327]	–	–	–	–	3870	73	232	–	–
CCC(=O)CCCCC[C@H](NC(=O)C1CC12CCN(C)CC2)c1ncc(-c2cc3ccccc3nc2OC)[nH]1 (stereo partly drawn) [Compound 313, N—((S)-1-(5-(2-methoxyquinolin-3-yl)-1H-imidazol-2-yl)-7-oxononyl)-6-methyl-6-azaspiro[2.5]octane-1-carboxamide]	–	–	–	–	3020	57	272	246	–
CCC(=O)CCCCC[C@H](NC(=O)[C@H]1CC12CCN(C)CC2)c1ncc(-c2cc3ncccc3nc2OC)[nH]1 [Compound 142]	5120	311	544	3670	–	–	–	–	–
CCC(=O)CCCCC[C@H](NC(=O)C1CCC2(CC1)CN(CC)C2)c1ncc(-c2cc3ccccc3nc2OC)[nH]1 [Compound 271]	–	–	–	–	1750	154	634	464	–
CCC(=O)CCCCC[C@H](NC(=O)[C@H]1CC12CCN(C)CC2)c1ncc(-c2cccnc2OC)[nH]1 [Compound 102]	3260	290	301	1950	–	–	–	–	–
CCCN1CCC2(CC1)C[C@@H]2C(=O)N[C@@H](CCCCCC(=O)CC)c1ncc(-c2cc3ccccc3nc2OC)[nH]1 [Compound 331]	–	–	–	–	2030	154	896	490	–
CCC(=O)CCCCC[C@H](NC(=O)C1CC2(CCN(C)CC2)C1)c1ncc(-c2cc3ccccc3nc2OC)[nH]1 [Compound 277]	–	–	–	–	1920	140	708	405	–
CCC(=O)CCCCC[C@H](NC(=O)[C@H]1CC12CCN(C)CC2)c1ncc(-c2cc3ccccc3nc2O)[nH]1 (single isomer, unassigned) [Compound 325]	–	–	–	–	–	154	216	–	–
CCC(=O)CCCCC[C@H](NC(=O)[C@H]1CC12CCN(C)CC2)c1ncc(-c2ccc3ncccc3c2)[nH]1 [Compound 282]	–	–	–	–	–	–	–	–	EC50 (KARN cells (Jurkat 2C4); read-out: Karn EC50 (nM) 0.1% NHS, 0.1% normal human serum, luciferase induction, 100% = 2 μM SAHA): 294 nM; EC50 (KARN cells (Jurkat 2C4); read-out: Karn EC50 (nM) 5% NHS, 5% normal human serum, luciferase induction, 100% = 2 μM SAHA): 247 nM
CCC(=O)CCCCC[C@H](NC(=O)[C@@H]1CC12CCN(C)CC2)c1ncc(-c2cc3ccccc3nc2O)[nH]1 (single isomer, unassigned) [Compound 324]	–	–	–	–	–	1170	1210	–	–
